ChEMBL document CHEMBL1201862, “PubChem BioAssay data set” (2004)
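Following 48 hours of exposure in 96-well plates, responses at five concentrations were used to interpolate endpoints linearly. GI50 is the concentration that inhibits growth by half.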 Calls of active or inactive are those of the source. Cut-off read from the data, not from the text of the source: active = GI50 up to about 1.1 µM and inactive = higher.

Assays:
Assay in all cases: DTP human tumour cell line panel, 48 h
[1] = tested on: 786-0
[2] = tested on: A498
[3] = tested on: A549
[4] = tested on: ACHN
[5] = tested on: CCRF-CEM
[6] = tested on: COLO 205
[7] = tested on: DU-145
[8] = tested on: EKVX
[9] = tested on: HCC 2998
[10] = tested on: HCT-116
[11] = tested on: HCT-15
[12] = tested on: HL-60
[13] = tested on: HOP-62
[14] = tested on: HOP-92
[15] = tested on: HT-29
[16] = tested on: Hs-578T
[17] = tested on: K562
[18] = tested on: KM12
[19] = tested on: LOX IMVI
[20] = tested on: M14
[21] = tested on: MCF7
[22] = tested on: MDA-MB-231
[23] = tested on: MDA-MB-435
[24] = tested on: MOLT-4
[25] = tested on: Malme-3M
[26] = tested on: NCI-H226
[27] = tested on: NCI-H23
[28] = tested on: NCI-H460
[29] = tested on: NCI/ADR-RES
[30] = tested on: OVCAR-4
[31] = tested on: OVCAR-5
[32] = tested on: OVCAR-8
[33] = tested on: RPMI-8226
[34] = tested on: RXF 393
[35] = tested on: SF-268
[36] = tested on: SF-295
[37] = tested on: SF-539
[38] = tested on: SK-MEL-28
[39] = tested on: SK-MEL-5
[40] = tested on: SK-OV-3
[41] = tested on: SN12C
[42] = tested on: SNB-19
[43] = tested on: SNB-75
[44] = tested on: SR
[45] = tested on: SW-620
[46] = tested on: TK-10
[47] = tested on: U-251
[48] = tested on: UACC-257
[49] = tested on: UO-31
[50] = tested on: BT-549
[51] = tested on: CAKI-1
[52] = tested on: NCI-H522
[53] = tested on: OVCAR-3
[54] = tested on: PC-3
[55] = tested on: SK-MEL-2
[56] = tested on: T47D
[57] = tested on: UACC-62

In the case of `CC(=O)NC(NCCN)(c1ccccc1)c1ccccc1`, the GI50 [1] is reported as > 100 µM (inactive), the GI50 [2] is reported as 59.4 µM (inactive) and the GI50 [3] is reported as > 100 µM (inactive). For the same compound, the GI50 [4] was > 100 µM (inactive), the GI50 [5] was > 100 µM (inactive) and the GI50 [6] was > 100 µM (inactive). For the same compound, the GI50 [7] was > 100 µM (inactive), the GI50 [8] was > 100 µM (inactive) and the GI50 [9] was > 100 µM (inactive). The GI50 [10] was > 100 µM (inactive), the GI50 [11] was > 100 µM and the GI50 [12] was > 100 µM (inactive). For the same compound, the GI50 [13] was > 100 µM (inactive), the GI50 [14] was 16.9 µM (inactive) and the GI50 [15] was > 100 µM (inactive). For the same compound, the GI50 [16] was > 100 µM (inactive), the GI50 [17] was > 100 µM (inactive) and the GI50 [18] was > 100 µM (inactive). The GI50 [19] was > 100 µM (inactive), the GI50 [20] was > 100 µM (inactive) and the GI50 [21] was > 100 µM (inactive). For the same compound, the GI50 [22] was > 100 µM (inactive), the GI50 [23] was > 100 µM (inactive) and the GI50 [24] was > 100 µM (inactive). For the same compound, the GI50 [25] was > 100 µM (inactive), the GI50 [26] was > 100 µM (inactive) and the GI50 [27] was > 100 µM (inactive). For the same compound, the GI50 [28] was > 100 µM (inactive), the GI50 [29] was > 100 µM (inactive) and the GI50 [30] was > 100 µM (inactive). The GI50 [31] was 67.9 µM (inactive), the GI50 [32] was > 100 µM (inactive) and the GI50 [33] was > 100 µM (inactive). For the same compound, the GI50 [34] was > 100 µM (inactive), the GI50 [35] was > 100 µM (inactive) and the GI50 [36] was > 100 µM (inactive). The GI50 [37] was > 100 µM (inactive), the GI50 [38] was > 100 µM (inactive) and the GI50 [39] was > 100 µM (inactive). The GI50 [40] was > 100 µM (inactive), the GI50 [41] was > 100 µM (inactive) and the GI50 [42] was > 100 µM (inactive). For the same compound, the GI50 [43] was > 100 µM (inactive), the GI50 [44] was > 100 µM (inactive) and the GI50 [45] was > 100 µM (inactive). The GI50 [46] was > 100 µM (inactive), the GI50 [47] was > 100 µM (inactive) and the GI50 [48] was > 100 µM (inactive). The GI50 [49] was 48 µM (inactive).
In the case of `Cc1n[nH]c(=O)n1/N=C/c1ccc([N+](=O)[O-])o1`, the GI50 [1] is reported as 15.1 µM (inactive), the GI50 [2] is reported as 22.1 µM (inactive) and the GI50 [3] is reported as 16.7 µM (inactive). For the same compound, the GI50 [4] was 10.9 µM (inactive), the GI50 [50] was 21.8 µM (inactive) and the GI50 [51] was 7.8 µM (inactive). For the same compound, the GI50 [5] was 13.5 µM (inactive), the GI50 [6] was 8.59 µM (inactive) and the GI50 [7] was 10.4 µM (inactive). For the same compound, the GI50 [8] was 17.5 µM (inactive), the GI50 [9] was 20.6 µM (inactive) and the GI50 [10] was 8.39 µM (inactive). The GI50 [11] was 7.01 µM, the GI50 [13] was 26.9 µM (inactive) and the GI50 [15] was 12.9 µM (inactive). For the same compound, the GI50 [17] was 8.02 µM (inactive), the GI50 [18] was 13.7 µM (inactive) and the GI50 [19] was 8.85 µM (inactive). For the same compound, the GI50 [20] was 11.6 µM (inactive), the GI50 [21] was 18 µM (inactive) and the GI50 [22] was 18.2 µM (inactive). The GI50 [23] was 5.3 µM (inactive), the GI50 [24] was 5.7 µM (inactive) and the GI50 [25] was 4.65 µM (inactive). The GI50 [26] was 15.6 µM (inactive), the GI50 [27] was 13.8 µM (inactive) and the GI50 [28] was 14.3 µM (inactive). For the same compound, the GI50 [52] was 3.13 µM (inactive), the GI50 [29] was 17.4 µM (inactive) and the GI50 [53] was 5.58 µM (inactive). For the same compound, the GI50 [30] was 16.7 µM (inactive), the GI50 [31] was 21.4 µM (inactive) and the GI50 [32] was 15.2 µM (inactive). The GI50 [54] was 29 µM (inactive), the GI50 [33] was 15.7 µM (inactive) and the GI50 [34] was 0.881 µM (active). For the same compound, the GI50 [35] was 17.4 µM (inactive), the GI50 [36] was 25.8 µM (inactive) and the GI50 [37] was 19.1 µM (inactive). The GI50 [38] was 11.2 µM (inactive), the GI50 [55] was 14.2 µM (inactive) and the GI50 [39] was 3.56 µM (inactive). For the same compound, the GI50 [40] was 28.2 µM (inactive), the GI50 [41] was 5.64 µM (inactive) and the GI50 [42] was 31 µM (inactive). The GI50 [43] was 32.4 µM (inactive), the GI50 [45] was 13.9 µM (inactive) and the GI50 [56] was 19.5 µM (inactive). For the same compound, the GI50 [46] was 18.1 µM (inactive), the GI50 [47] was 21.7 µM (inactive) and the GI50 [48] was 13 µM (inactive). For the same compound, the GI50 [57] was 13.1 µM (inactive) and the GI50 [49] was 14.5 µM (inactive).
